# From patent US20110044943A1, “Anti-Viral Compounds, Compositions, And Methods Of Use” (priority 2007, published 2011)
# Assay: Replicon Assay (luciferase, ET cell line)
# Format: cell-based, HCV
# Settings: Hepatitis C virus; tested at 10 μM; inhibition of replication relative to no compound control; luciferase 48-72 hours
# From the text: A cell line, ET (Huh-lucubineo-ET) was used for screening of compounds, or pharmaceutically acceptable salts or solvates, described herein for inhibition of HCV RNA dependent RNA polymerase. The ET cell line was stably transfected with RNA transcripts harboring a I389luc-ubi-neo/NS3-3′/ET; replicon with firefly luciferase-ubiquitin-neomycin phosphotransferase fusion protein and EMCV-IRES driven NS3-5B polyprotein containing the cell culture adaptive mutations (E1202G; T1280I; K1846T) (Krieger at al, 2001 and unpublished). The ET cells were grown in DMEM, supplemented with 10% fetal calf serum, 2 mM Glutamine, Penicillin (100 IU/mL)/Streptomycin (100 μg/mL), 1× nonessential amino acids, and 250 μg/mL G418 (“Geneticin”). They were all available through Life Technologies (Bethesda, Md.). The cells were plated at 0.5-1.0×10^4 cells/well in the 96 well plates and incubated for 24 hrs before adding the test compounds. […] Luciferase activity was measured 48-72 hours later by adding a lysis buffer and the substrate (Catalog number Glo-lysis buffer E2661 and Bright-Glo luciferase system E2620 Promega, Madison, Wis.). […] Under the same condition, cytotoxicity of the compounds was determined using cell proliferation reagent, WST-1 (Roche, Germany). […] EC50 and similarly TC50 values were calculated by fitting % inhibition at each concentration to the following equation: […]
compound,measurement,value
Fc1cccc(-c2nc3cnn(Cc4cc(-c5ccc(Oc6ccccn6)cc5)no4)cc-3n2)c1F [Compound 217],inhibition at 10 µM,85.3%
